Results from patent publication US8952012B2, “Inhibition of delta-6 desaturase for the treatment of cardiometabolic disease” (Colorado State University Research Foundation, priority 2012, dated 2015).

Legend:
[1] = Liver toxicity on chronic administration; type: in vivo; conditions: 100 mpk/d for 4 wks, all animal models tested
[2] = target: T1, microsomal triglyceride transfer protein (MTP) (Bos taurus, UniProt P55156); assay: MTP activity, purified bovine MTP; type: biochemical; conditions: relatively weak potency
T1 sequence (P55156 12-887): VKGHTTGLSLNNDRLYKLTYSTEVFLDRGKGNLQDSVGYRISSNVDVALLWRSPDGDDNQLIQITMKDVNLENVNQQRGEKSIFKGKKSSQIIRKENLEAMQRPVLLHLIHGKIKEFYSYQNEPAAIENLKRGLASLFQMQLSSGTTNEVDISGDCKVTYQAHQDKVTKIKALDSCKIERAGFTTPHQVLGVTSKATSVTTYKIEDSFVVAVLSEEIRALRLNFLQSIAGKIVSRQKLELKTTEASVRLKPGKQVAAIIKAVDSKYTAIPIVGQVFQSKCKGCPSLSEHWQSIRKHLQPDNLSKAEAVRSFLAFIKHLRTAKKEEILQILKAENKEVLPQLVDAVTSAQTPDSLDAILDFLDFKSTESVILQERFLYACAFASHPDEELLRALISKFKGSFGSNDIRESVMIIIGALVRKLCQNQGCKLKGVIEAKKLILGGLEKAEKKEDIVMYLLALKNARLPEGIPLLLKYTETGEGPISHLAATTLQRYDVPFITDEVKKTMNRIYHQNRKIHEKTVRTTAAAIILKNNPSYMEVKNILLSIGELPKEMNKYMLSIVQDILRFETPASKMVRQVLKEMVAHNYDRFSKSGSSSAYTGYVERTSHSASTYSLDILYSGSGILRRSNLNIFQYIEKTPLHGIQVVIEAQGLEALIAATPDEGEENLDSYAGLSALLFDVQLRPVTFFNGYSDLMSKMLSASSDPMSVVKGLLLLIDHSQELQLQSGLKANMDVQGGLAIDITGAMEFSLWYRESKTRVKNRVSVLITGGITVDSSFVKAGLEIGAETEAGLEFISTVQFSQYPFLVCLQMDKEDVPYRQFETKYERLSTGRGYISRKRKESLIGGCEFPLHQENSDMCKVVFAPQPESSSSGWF
T1 sequence (P05307 21-510 partner): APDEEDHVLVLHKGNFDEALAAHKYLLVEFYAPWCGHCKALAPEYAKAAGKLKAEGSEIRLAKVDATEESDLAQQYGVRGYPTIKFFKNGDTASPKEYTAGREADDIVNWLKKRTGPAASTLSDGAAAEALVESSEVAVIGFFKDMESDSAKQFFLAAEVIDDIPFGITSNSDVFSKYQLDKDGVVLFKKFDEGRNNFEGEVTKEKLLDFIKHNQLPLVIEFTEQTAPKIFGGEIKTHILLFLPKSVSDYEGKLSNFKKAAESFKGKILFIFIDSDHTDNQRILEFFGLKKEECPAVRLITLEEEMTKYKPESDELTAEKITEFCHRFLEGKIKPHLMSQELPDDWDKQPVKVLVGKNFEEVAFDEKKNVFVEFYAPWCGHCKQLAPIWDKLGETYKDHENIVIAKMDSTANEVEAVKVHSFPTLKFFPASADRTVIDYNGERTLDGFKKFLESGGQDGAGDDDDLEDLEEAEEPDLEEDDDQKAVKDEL

[3] = target: T2, microsomal triglyceride transfer protein (MTP) (Rattus norvegicus, UniProt D4A1W8); assay: MTP activity, rat liver microsomal extracts; type: biochemical; conditions: rat liver microsomal extracts at 100 mpk dosing in vivo; relatively weak potency
T2 construct: rat liver microsomal extracts; from tissue; host or cells: rat liver microsomal extracts
T2 sequence (D4A1W8 22-896): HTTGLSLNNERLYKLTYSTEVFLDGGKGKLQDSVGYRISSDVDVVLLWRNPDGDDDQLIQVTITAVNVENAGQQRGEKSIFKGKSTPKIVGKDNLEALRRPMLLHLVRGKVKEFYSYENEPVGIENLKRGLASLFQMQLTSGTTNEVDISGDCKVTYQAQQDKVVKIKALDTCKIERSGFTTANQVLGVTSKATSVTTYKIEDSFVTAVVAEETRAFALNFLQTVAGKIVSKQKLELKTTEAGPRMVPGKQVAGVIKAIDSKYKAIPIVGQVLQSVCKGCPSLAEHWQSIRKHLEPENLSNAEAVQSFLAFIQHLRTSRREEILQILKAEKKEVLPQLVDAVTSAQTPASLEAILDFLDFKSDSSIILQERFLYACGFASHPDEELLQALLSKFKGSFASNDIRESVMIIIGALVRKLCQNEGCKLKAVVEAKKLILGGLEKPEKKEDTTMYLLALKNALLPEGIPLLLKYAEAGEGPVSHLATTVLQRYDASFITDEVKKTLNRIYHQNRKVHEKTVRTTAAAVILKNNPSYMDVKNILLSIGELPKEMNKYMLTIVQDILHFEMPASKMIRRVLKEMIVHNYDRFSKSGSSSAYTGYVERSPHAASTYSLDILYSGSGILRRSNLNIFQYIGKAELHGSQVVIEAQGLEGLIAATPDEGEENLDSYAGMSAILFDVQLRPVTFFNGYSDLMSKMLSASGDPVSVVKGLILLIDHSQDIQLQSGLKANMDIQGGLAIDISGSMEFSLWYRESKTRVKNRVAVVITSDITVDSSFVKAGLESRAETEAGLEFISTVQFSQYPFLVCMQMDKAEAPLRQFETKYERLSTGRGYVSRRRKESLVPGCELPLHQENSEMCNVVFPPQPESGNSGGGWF
T2 sequence (P04785 20-509 partner): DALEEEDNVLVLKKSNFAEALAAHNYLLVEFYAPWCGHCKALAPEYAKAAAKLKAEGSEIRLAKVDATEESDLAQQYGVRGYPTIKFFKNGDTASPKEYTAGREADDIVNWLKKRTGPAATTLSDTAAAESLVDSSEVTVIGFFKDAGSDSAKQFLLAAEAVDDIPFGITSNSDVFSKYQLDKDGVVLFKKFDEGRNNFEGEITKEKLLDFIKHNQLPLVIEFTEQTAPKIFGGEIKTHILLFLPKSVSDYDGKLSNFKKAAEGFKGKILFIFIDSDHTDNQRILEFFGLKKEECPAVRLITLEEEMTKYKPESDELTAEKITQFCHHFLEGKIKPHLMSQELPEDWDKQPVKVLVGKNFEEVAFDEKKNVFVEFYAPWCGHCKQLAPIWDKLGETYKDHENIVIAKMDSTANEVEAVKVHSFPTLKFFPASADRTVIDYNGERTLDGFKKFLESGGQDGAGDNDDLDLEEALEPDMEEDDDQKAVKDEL

leptin-deficient ob mice = assay: ob/ob mice (hyperphagic obesity) on normal diet treated 4 weeks; type: in vivo
Method: (§1) To assess the effects of D6D inhibition on structures and processes related to cardiometabolic diseases and disorders, the following experiments were conducted. Animal studies have reported evidence of increased D6D activity in rodent models of CMD (e.g., increase in AA/LA in tissue phospholipids), making them reasonable models for studying the role of D6D in its pathogenesis. To probe the effect of D6D directly, the compound SC-26196, a selective D6D inhibitor was orally administered by admixing the SC-26196 in the food mixtures of the rodent models of CMD at a dosage of about 100 mg/kg/day for four weeks. The rodent models of CMD used in these experiments included a murine model of hyperphagic obesity (leptin-deficient ob mice) and a diet-induced insulin resistance model (normal C57BI/6 mice fed a high-fat “Western” diet) for 8 weeks prior to participation in any experiments.
Initially, the effects of D6D inhibition in conjunction with a normal diet were assessed. 4 mo old ob/ob mice were administered the selective D6D inhibitor SC-26196 (100 mg/kg/d mixed in chow) for 4 weeks (ob/ob+D6D−; n=12). The ob mice treated with SC-26196 for four weeks (ob+SC) were compared to untreated ob mice (ob) and normal C57BI/6 mice (BI/6). FIGS. 3A-C summarizes the results of this comparison. […] As summarized in FIG. 7, treatment with SC-26196 normalized responses to a glucose tolerance test, decreased serum insulin, and reduced hepatic macrophage (MΦ) content and ser-307 phosphorylation of IRS-1, the canonical cellular mechanism of hepatic insulin resistance resulting from inflammatory signaling. As summarized in FIGS. 8A and 8B, treatment with SC-26196 reduced the hepatic PC/PE ratio in the treated ob mice. FIG. 9 illustrates that SC-26196 treatment normalized the cardiac phospholipid/cardiolipin composition in the treated ob mice.

ob mice = ob mice on high fat/sucrose Western diet; type: in vivo
Method: as §1
To assess the interaction of a high-fat Western diet with the effects of D6D inhibition, the following experiment was conducted. The ob mice and the BI/6 mice were maintained on a high fat/sucrose Western diet and part of each group was treated with SC-26196 in a similar manner as described above. The treated and untreated ob and BI/6 mice were compared. FIGS. 4A-4B summarize the results of this experiment.

LDLR -/- mice = assay: LDL receptor-lacking mice on Western diet; type: in vivo
Description: (§2) Mice lacking LDL receptors (LDLR −/−) were similarly maintained on a high fat/sucrose Western diet and treated with SC-26196 in a similar manner as described above. As summarized in FIG. 5, SC-26196 treatment ameliorated hyperlipidemia and atherosclerosis in mice lacking LDL receptors fed the Western diet. The treatment also attenuated cardiac dysfunction, pathologic hypertrophy and fibrosis in mice subjected to thoracic aortic banding (TAC) or chronic hypertension (HF), as summarized in FIG. 6.

[4] = system: cardiac dysfunction, hypertrophy, fibrosis; assay: Thoracic aortic banding (TAC) or chronic hypertension (HF) model; type: in vivo, mice
Description: as §2

delta-6 desaturase (D6D) [5] = conditions: cited from earlier work
delta-6 desaturase (D6D) [6] = target: T3, delta-6 desaturase (D6D) (Mus musculus, UniProt Q9Z0R9); conditions: cited from earlier work
T3 construct: host or cells: endogenous enzyme of the dosed animal
T3 sequence (Q9Z0R9 1-444): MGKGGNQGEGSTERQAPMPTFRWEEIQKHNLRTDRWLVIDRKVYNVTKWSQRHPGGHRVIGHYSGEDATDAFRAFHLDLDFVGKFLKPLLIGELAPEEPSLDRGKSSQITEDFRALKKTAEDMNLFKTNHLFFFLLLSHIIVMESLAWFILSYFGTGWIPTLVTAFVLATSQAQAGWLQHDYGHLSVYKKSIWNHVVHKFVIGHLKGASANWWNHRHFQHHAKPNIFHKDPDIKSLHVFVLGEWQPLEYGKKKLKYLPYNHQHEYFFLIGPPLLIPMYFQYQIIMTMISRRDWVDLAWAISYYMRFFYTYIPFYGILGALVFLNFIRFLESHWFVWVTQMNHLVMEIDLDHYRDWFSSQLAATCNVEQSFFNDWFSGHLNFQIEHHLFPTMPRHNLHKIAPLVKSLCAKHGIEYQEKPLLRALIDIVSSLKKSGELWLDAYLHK

[7] = cited from earlier work
tissue AA/LA ratios = conditions: cited from earlier work
[8] = ob mice, normal diet, 100 mg/kg/d
[9] = ob/ob mice, cardiac, 100 mg/kg/d, vs lean C57BI/6
[10] = 100 mpk/d mixed in mouse chow, 4 weeks

MTP activity [2]: inhibited MTP activity | MTP activity [3]: inhibited MTP activity
Structure (SMILES): N#CC(CCCN1CCN(/N=C/c2cccnc2)CC1)(c1ccccc1)c1ccccc1 [SC-26196, (E)-2,2-Diphenyl-5-{4-[(pyridin-3-yl-methylene)amino]piperazin-1-yl}pentanenitrile]
hepatomegaly [1]: significant hepatomegaly | ser-307 phosphorylation of IRS-1 (leptin-deficient ob mice; ob mice, liver, normal diet, 100 mg/kg/d): reduced | cardiac oxidative stress (leptin-deficient ob mice; [8]): reduced | cardiac phospholipid/cardiolipin composition (leptin-deficient ob mice; [8]): normalized | eicosanoid species in heart tissue (leptin-deficient ob mice; [8]): abolished significant increases | eicosanoid species in serum (leptin-deficient ob mice; [8]): abolished significant increases | hepatic PC/PE ratio (leptin-deficient ob mice; [8]): reduced | hepatic macrophage content (leptin-deficient ob mice; [8]): reduced | responses to a glucose tolerance test (leptin-deficient ob mice; [8]): normalized | serum insulin (leptin-deficient ob mice; [8]): decreased | phospholipid AA/LA ratio of serum, liver, heart and muscle tissue (leptin-deficient ob mice; ob mice, normal diet, 100 mg/kg/d in chow): reversed significant elevations | cardiac cardiolipin profile (leptin-deficient ob mice; ob/ob mice, 100 mg/kg/d in chow, vs lean C57BI/6): to levels similar to those in lean age-matched control mice | membrane peroxidizability index (leptin-deficient ob mice; [9]): to levels similar to those in lean age-matched control mice | phospholipid D6D activity index (20:4/18:2 ratio) (leptin-deficient ob mice; [9]): to levels similar to those in lean age-matched control mice | phospholipid DHA content (leptin-deficient ob mice; [9]): to levels similar to those in lean age-matched control mice | fasting blood glucose (ob mice): reduced | responses to a glucose tolerance test (ob mice): normalized | serum insulin levels (ob mice): normalized 8-fold elevations | atherosclerosis (LDLR -/- mice): ameliorated | hyperlipidemia (LDLR -/- mice): ameliorated | cardiac dysfunction [4]: attenuated | fibrosis [4]: attenuated | pathologic hypertrophy [4]: attenuated | selectivity for D6D over other desaturase enzymes (delta-6 desaturase (D6D) [5]): potent selectivity | IC50 (delta-6 desaturase (D6D) [5]; in vitro): 200 nM | inhibition of D6D enzymatic activity in vivo (delta-6 desaturase (D6D) [6]; 100 mg/kg b.i.d., i.g. over a 24 hr period): about 65% | oral activity (delta-6 desaturase (D6D) [6]; at 100 mpk): oral activity | Peak plasma levels ([7]; 100 mpk ig dosing): 2 µM | half-life ([7]; 100 mpk ig dosing): 1.2 h | bioavailability ([7]; 100 mpk ig, based on AUC calculations): about 60% | effect in a model of acute inflammation (tissue AA/LA ratios; [10]): protective effects | tissue AA/LA ratios (tissue AA/LA ratios; [10]): reduced | reversing elevations of tissue AA/LA associated with acute inflammation (tissue AA/LA ratios; lower doses, 50 and 75 mpk/d, 4 wks): ineffective
